Paper PMC6193938, “Characterization of a novel AICARFT inhibitor which potently elevates ZMP and has anti-tumor activity in murine models” (Scientific Reports, 2018)
Where two headings read alike, the source gives them in different places.

System: panel of human cell lines
Test: In vitro proliferation assay, Cell Titer Glo, two doubling times, 298 cell lines
Assay type: cell-based
Conditions: read-out: ABS_IC50_VALUE
Source text: Cell Titer Glo measures ATP, thus the IC50s represent both the effect on purine production and cell proliferation, which are related. […] Folates are actively taken up in cells by reduced folate carrier (SLC19A1), proton-coupled folate transporter (SLC46A1), and the FOLR1 folate receptor[17]. Once inside the cell, folates are trapped by polyglutamation catalyzed by folylpolyglutamate synthetase (FPGS). […] Gene expression data for ATIC, GART, APRT, HPRT, FOLR1, SLC19A1, SLC46A1 & FPGS are shown in Fig. 2, since these genes were anticipated to predict sensitivity. […] The MDA-MB-231 cell line is reduced folate carrier (SLC19A1) negative due to epigenetic silencing.
Cells were cultured using recommended culture conditions unless noted otherwise (Supplemental Table 3). Cells were plated, dosed with compound and incubated at 37 °C for approximately 2 doubling times as determined for each cell line. Cell Titer Glo (Promega) assay was used to measure proliferation according to manufacturer’s recommendations by measuring luminescence with Flexstation3 (Molecular Devices) with 500 ms integration time. […] The % response was fit to a four-parameter logistic equation using ACTIVITYBASE 4.0 to determine the absolute IC50 values.
Cell Lines: Cell lines of adrenal gland, autonomic ganglia, biliary tract, blood ALL, blood AML, blood CML, blood hodgkin lymphoma, blood lymphoma, blood multiple myeloma, blood NHL, blood RAEB, bone, breast ER+, breast fibroblast, breast fibroblast mixed, breast HER2, breast normal, breast triple negative, cervix, CNS, endometrium, eye, fibroblast normal, kidney ns, kidney renal, large intestine, liver, liver normal, lung adenocarcinoma, lung ns, lung NSCLC, lung NSCLC mixed, lung SCLC, lung squamous, melanoma, melanoma normal, esophagus adenocarcinoma, esophagus ns, esophagus squamous, ovary, pancreas adenocarcinoma, pancreas ductal carcinoma, pancreas ns, pleura mesothelioma, prostate adenocarcinoma, prostate small cell, salivary gland, small intestine, soft tissue, stomach, testis, thyroid, thyroid squamous, umbilical vein endothelial cell normal, upper aerodigestive tract squamous, urinary tract ns, urinary tract transitional cell carcinoma, and vulva squamous origin were obtained from ATCC, CASTCC, CLS, DSMZ, ECACC, HSRRB, ICLC, JCRB, NCI, Riken and SNU cell banks. The murine A9 cell line was acquired from the ATCC (CCL-1.4).

SMILES: O=c1[nH]ccc2cc(F)c(NS(=O)(=O)c3ccc(N4CC[C@@H](O)C4)s3)cc12 [LSN3213128, N-(6-Fluoro-1-oxo-1,2-dihydroisoquinolin-7-yl)-5-[(3R)-3-hydroxypyrrolidin-1-yl]thiophene-2-sulfonamide]
- IC50 (Homo sapiens, 22Rv1, 22RV1, prostate): 13.7 µM
- IC50 (Homo sapiens, 769-P, kidney): 1.21 µM
- IC50 (Homo sapiens, 5637, urinary tract): 2.88 µM
- IC50 (Homo sapiens, 8505C, thyroid): > 20 µM
- IC50 (Homo sapiens, A101D, skin): 2.22 µM
- IC50 (Homo sapiens, A204, A204, soft tissue): > 20 µM
- IC50 (Homo sapiens, A253, A253, salivary gland): > 20 µM
- IC50 (Homo sapiens, A498, A498, kidney): 12.2 µM
- IC50 (Homo sapiens, A549, A549, lung): > 20 µM
- IC50 (Homo sapiens, A2058, A2058, skin): > 20 µM
- IC50 (Homo sapiens, A2780, A2780, ovary): 3.23 µM
- IC50 (Homo sapiens, ACHN, kidney): 1.94 µM
- IC50 (Homo sapiens, AGS, stomach): > 20 µM
- IC50 (Homo sapiens, ASPC1, AsPC-1, pancreas): > 20 µM
- IC50 (Homo sapiens, AU565, AU565, breast): 0.58 µM
- IC50 (Homo sapiens, BCP-1, BCP-1, haematopoietic and lymphoid tissue): 11.1 µM
- IC50 (Homo sapiens, BT-20, BT-20, breast): > 20 µM
- IC50 (Homo sapiens, BT-474, BT-474, breast): > 20 µM
- IC50 (Homo sapiens, BT-483, BT-483, breast): > 20 µM
- IC50 (Homo sapiens, BT-549, BT-549, breast): > 20 µM
- IC50 (Homo sapiens, BXPC-3, BxPC-3, pancreas): 4.49 µM
- IC50 (Homo sapiens, C2BBe1, C2BBe1, large intestine): > 20 µM
- IC50 (Homo sapiens, C3A, liver): 25.2 µM
- IC50 (Homo sapiens, C32, skin): > 20 µM
- IC50 (Homo sapiens, CA46, CA46, haematopoietic and lymphoid tissue): > 20 µM
- IC50 (Homo sapiens, CAKI-1, Caki-1, kidney): > 20 µM
- IC50 (Homo sapiens, CAKI-2, Caki-2, kidney): 5.03 µM
- IC50 (Homo sapiens, CAMA-1, CAMA-1, breast): > 20 µM
- IC50 (Homo sapiens, CAPAN-1, CAPAN-1, pancreas): > 20 µM
- IC50 (Homo sapiens, CCF-STTG1, CCF-STTG1, central nervous system): > 20 µM
- IC50 (Homo sapiens, CFPAC-1, CFPAC-1, pancreas): > 20 µM
- IC50 (Homo sapiens, CHL-1, CHL-1, skin): > 20 µM
- IC50 (Homo sapiens, CHP-212, CHP-212, autonomic ganglia): > 20 µM
- IC50 (Homo sapiens, COLO 205, COLO-205, large intestine): 1.68 µM
- IC50 (Homo sapiens, COLO-320-HSR, large intestine): 3.3 µM
- IC50 (Homo sapiens, COLO-680N, oesophagus): 2.05 µM
- IC50 (Homo sapiens, COLO-741, COLO-741, large intestine): 1.58 µM
- IC50 (Homo sapiens, COR-L23, COR-L23, lung): 1.4 µM
- IC50 (Homo sapiens, Calu-1, Calu-1, lung): > 20 µM
- IC50 (Homo sapiens, Calu-3, Calu-3, lung): 2.27 µM
- IC50 (Homo sapiens, Calu-6, Calu-6, lung): 11.9 µM
- IC50 (Homo sapiens, Capan-2, Capan-2, pancreas): 15.3 µM
- IC50 (Homo sapiens, ChaGo-K-1, ChaGo-K-1, lung): > 20 µM
- IC50 (Homo sapiens, D341 Med, central nervous system): > 20 µM
- IC50 (Homo sapiens, DB, haematopoietic and lymphoid tissue): 10.8 µM
- IC50 (Homo sapiens, DMS-53, DMS-53, lung): > 20 µM
- IC50 (Homo sapiens, Daoy, central nervous system): 1.02 µM
- IC50 (Homo sapiens, Daudi, haematopoietic and lymphoid tissue): 1.1 µM
- IC50 (Homo sapiens, EB1, haematopoietic and lymphoid tissue): 1.28 µM
- IC50 (Homo sapiens, EB2, haematopoietic and lymphoid tissue): > 20 µM
- IC50 (Homo sapiens, ES-2, ovary): > 20 µM
- IC50 (Homo sapiens, F-36P, haematopoietic and lymphoid tissue): 0.79 µM
- IC50 (Homo sapiens, G-361, G-361, skin): > 20 µM
- IC50 (Homo sapiens, G-401, G-401, kidney): > 20 µM
- IC50 (Homo sapiens, G-402, G-402, soft tissue): > 20 µM
- IC50 (Homo sapiens, GCT, soft tissue): > 20 µM
- IC50 (Homo sapiens, GI-1, central nervous system): 15.5 µM
- IC50 (Homo sapiens, GP2d, large intestine): 14.3 µM
- IC50 (Homo sapiens, HCC38, HCC38, breast): > 20 µM
- IC50 (Homo sapiens, HCC70, HCC70, breast): > 20 µM
- IC50 (Homo sapiens, HCC202, HCC202, breast): > 20 µM
- IC50 (Homo sapiens, HCC827, HCC827, lung): 16 µM
- IC50 (Homo sapiens, HCC1143, HCC1143, breast): > 20 µM
- IC50 (Homo sapiens, HCC1187, HCC1187, breast): > 20 µM
- IC50 (Homo sapiens, HCC1395, HCC1395, breast): > 20 µM
- IC50 (Homo sapiens, HCC1419, HCC1419, breast): 10.4 µM
- IC50 (Homo sapiens, HCC1599, HCC1599, breast): 3.65 µM
- IC50 (Homo sapiens, HCC1806, HCC1806, breast): > 20 µM
- IC50 (Homo sapiens, HCC1937, HCC1937, breast): 18.5 µM
- IC50 (Homo sapiens, HCC1954, HCC1954, breast): 0.09 µM
- IC50 (Homo sapiens, HCC2218, HCC2218, breast): > 20 µM
- IC50 (Homo sapiens, HCT-15, HCT-15, large intestine): 3.51 µM
- IC50 (Homo sapiens, HEC-1-A, endometrium): 13.6 µM
- IC50 (Homo sapiens, HGC-27, HGC-27, stomach): > 20 µM
